In patent publication US20020032328A1, “Heterocyclic acylsulfimides, processes for their preparation, compositions comprising them and their use as pesticides” (priority 2000, published 2002):

Key:
[1] = tested on: black bean aphids (Aphis fabae); assay: Aphis fabae dip test on field bean (plants and aphids dipped in preparation); type: in vivo; details: read-out: mortality among the aphids
[2] = tested on: black bean aphids (Aphis fabae); assay: Aphis fabae root-systemic test on field bean; type: in vivo; details: read-out: mortality among the aphids, by root-systemic action

Structure (SMILES) | mortality at 300 ppm [1] | mortality at 30 ppm [2]
CS(=O)(=NC(=O)c1cnccc1C(F)(F)F)c1ccc(Oc2cccc(F)c2C#N)cc1 (stereo not shown) [Example 718] | 90 to 100% | 90 to 100%
C/S(=N\C(=O)c1cnccc1C(F)(F)F)c1ccsc1 (stereo not shown) [Example 66] | 90 to 100% | 90 to 100%
